Results taken from BindingDB's records for doi:10.1021/jm030452x (University of Arizona, 2004).
pEC50, pIC50: −log10 of the molar value.

Tests used:
[1] = target: Melanocortin receptor 1 (Rana pipiens); test: Effective concentration required for maximum agonist response at melanocortin 1 receptor from frog skin.
[2] = target: Melanocyte-stimulating hormone receptor (Rana pipiens); test: Inhibition of 1 nM alpha melanocortin stimulating hormone (MSH) from frog skin

| SMILES | pEC50 [1] | pIC50 [2] |
| --- | --- | --- |
| C[C@H](O)[C@@H](NC(=O)[C@H]1CSSC[C@H](NC(=O)[C@H](N)Cc2ccccc2)C(=O)N[C@@H](Cc2cnc[nH]2)C(=O)N[C@@H](Cc2ccc(Cl)cc2)C(=O)N[C@@H](CCCNC(=N)N)C(=O)N[C@H](Cc2c[nH]c3ccccc23)C(=O)N1)C(N)=O [1N-(1-carbamoyl-2-hydroxypropyl)-15-[3-amino(imino)methylaminopropyl]-6-(1-amino-2-phenylethylcarboxamido)-12-(4-chlorobenzyl)-9-(1H-5-imidazolylmethyl)-18-(1H-3-indolylmethyl)-7,10,13,16,19-pentaoxo-3,4-dithia-8,11,14,17,20-pentaazacycloicosane-] | 7.52 | – |
| C[C@@H](O)[C@H](NC(=O)[C@H]1NC(=O)[C@H](Cc2c[nH]c3ccccc23)NC(=O)[C@H](CCCN=C(N)N)NC(=O)[C@@H](Cc2c[nH]c3ccccc23)NC(=O)[C@H](Cc2ccccc2)NC(=O)[C@@H](NC(=O)[C@H](N)Cc2ccccc2)CSSC1(C)C)C(N)=O [1N-(1-carbamoyl-2-hydroxypropyl)-15-[3-amino(imino)methylaminopropyl]-6-(1-amino-2-phenylethylcarboxamido)-9-benzyl-12,18-di(1H-3-indolylmethyl)-2,2-dimethyl-7,10,13,16,19-pentaoxo-3,4-dithia-8,11,14,17,20-pentaazacycloicosane-1-carboxamide] | – | 6.00 |
| C[C@@H](O)[C@H](NC(=O)[C@@H]1CSSCC[C@H](NC(=O)[C@H](N)Cc2ccccc2)C(=O)N[C@@H](Cc2cnc[nH]2)C(=O)N[C@H](Cc2ccccc2)C(=O)N[C@@H](CCCNC(=N)N)C(=O)N[C@@H](Cc2c[nH]c3ccccc23)C(=O)N1)C(N)=O [H-D-Phe-c[Hcy-His-D-Phe-Arg-Trp-Cys]-Thr-NH2] | 9.52 | – |
| C[C@@H](O)[C@H](NC(=O)[C@H]1CSSC[C@H](NC(=O)[C@H](N)Cc2ccccc2)C(=O)N[C@@H](Cc2cnc[nH]2)C(=O)N[C@@H](Cc2ccccc2)C(=O)N[C@@H](CCCNC(=N)N)C(=O)N[C@H](Cc2c[nH]c3ccccc23)C(=O)N1)C(N)=O [1N-(1-carbamoyl-2-hydroxypropyl)-15-[3-amino(imino)methylaminopropyl]-6-(1-amino-2-phenylethylcarboxamido)-12-benzyl-9-(1H-5-imidazolylmethyl)-18-(1H-3-indolylmethyl)-7,10,13,16,19-pentaoxo-3,4-dithia-8,11,14,17,20-pentaazacycloicosane-1-carboxam] | 8.00 | – |
| C[C@@H](O)[C@H](NC(=O)[C@H]1CSSC[C@H](NC(=O)[C@@H](N)Cc2ccccc2)C(=O)N[C@@H](Cc2cnc[nH]2)C(=O)N[C@H](Cc2ccccc2)C(=O)N[C@@H](CCCNC(=N)N)C(=O)N[C@H](Cc2c[nH]c3ccccc23)C(=O)N1)C(N)=O [1N-(1-carbamoyl-2-hydroxypropyl)-15-[3-amino(imino)methylaminopropyl]-6-(1-amino-2-phenylethylcarboxamido)-12-benzyl-9-(1H-5-imidazolylmethyl)-18-(1H-3-indolylmethyl)-7,10,13,16,19-pentaoxo-3,4-dithia-8,11,14,17,20-pentaazacycloicosane-1-carboxam] | 5.52 | – |
| C[C@@H](O)[C@H](NC(=O)[C@H]1NC(=O)[C@H](CO)NC(=O)[C@H](CCCNC(=N)N)NC(=O)[C@@H](Cc2c[nH]c3ccccc23)NC(=O)[C@H](Cc2ccc(O)cc2)NC(=O)[C@@H](NC(=O)[C@H](N)Cc2ccccc2)CSSC1(C)C)C(N)=O [1N-(1-carbamoyl-2-hydroxypropyl)-15-[3-amino(imino)methylaminopropyl]-6-(1-amino-2-phenylethylcarboxamido)-9-(4-hydroxybenzyl)-18-hydroxymethyl-12-(1H-3-indolylmethyl)-2,2-dimethyl-7,10,13,16,19-pentaoxo-3,4-dithia-8,11,14,17,20-pentaazacycloicosane] | – | 6.00 |
| C[C@@H](O)[C@H](NC(=O)[C@@H]1CSSC[C@H](NC(=O)[C@H](N)Cc2ccccc2)C(=O)N[C@@H](Cc2cnc[nH]2)C(=O)N[C@@H](Cc2ccc(F)cc2)C(=O)N[C@@H](CCCNC(=N)N)C(=O)N[C@H](Cc2c[nH]c3ccccc23)C(=O)N1)C(N)=O [1N-(1-carbamoyl-2-hydroxypropyl)-15-[3-amino(imino)methylaminopropyl]-6-(1-amino-2-phenylethylcarboxamido)-12-(4-fluorobenzyl)-9-(1H-5-imidazolylmethyl)-18-(1H-3-indolylmethyl)-7,10,13,16,19-pentaoxo-3,4-dithia-8,11,14,17,20-pentaazacycloicosane-] | 6.00 | – |
| C[C@H](O)[C@@H](NC(=O)[C@H]1CSSC[C@H](NC(=O)[C@@H](N)Cc2ccccc2)C(=O)N[C@@H](Cc2c[nH]cn2)C(=O)N2Cc3ccccc3C[C@H]2C(=O)N[C@@H](CCCN=C(N)N)C(=O)N[C@H](Cc2c[nH]c3ccccc23)C(=O)N1)C(N)=O [(2R,3S)-2-{[(3S,6R,9S,14R,17S)-14-[(2S)-2-amino-3-phenylpropanamido]-3-{3-[(diaminomethylidene)amino]propyl}-17-(1H-imidazol-4-ylmethyl)-6-(1H-indol-3-ylmethyl)-1,4,7,15,18-pentaoxo-1H,2H,3H,4H,5H,6H,7H,8H,9H,10H,13H,14H,15H,16H,17H,18H,20H,25H,25aH-isoquinolino[3,2-m]1,2-dithia-5,8,11,14,17-pentaazacycloicosan-9-yl]formamido}-3-hydroxybutanamide] | – | 6.00 |
| C[C@@H](O)[C@H](NC(=O)[C@@H]1CCSSC[C@H](NC(=O)[C@H](N)Cc2ccccc2)C(=O)N[C@@H](Cc2cnc[nH]2)C(=O)N[C@H](Cc2ccccc2)C(=O)N[C@@H](CCCNC(=N)N)C(=O)N[C@@H](Cc2c[nH]c3ccccc23)C(=O)N1)C(N)=O [1N-(1-carbamoyl-2-hydroxypropyl)-16-[3-amino(imino)methylaminopropyl]-7-(1-amino-2-phenylethylcarboxamido)-13-benzyl-10-(1H-5-imidazolylmethyl)-19-(1H-3-indolylmethyl)-8,11,14,17,20-pentaoxo-4,5-dithia-9,12,15,18,21-pentaazacyclohenicosane-1-carb] | 6.00 | – |
| C[C@@H](O)[C@H](NC(=O)[C@H]1NC(=O)[C@H](Cc2c[nH]c3ccccc23)NC(=O)[C@H](CCCN=C(N)N)NC(=O)[C@@H](Cc2c[nH]c3ccccc23)NC(=O)[C@H](Cc2ccc(O)cc2)NC(=O)[C@@H](NC(=O)[C@H](N)Cc2ccccc2)CSSC1(C)C)C(N)=O [1N-(1-carbamoyl-2-hydroxypropyl)-15-[3-amino(imino)methylaminopropyl]-6-(1-amino-2-phenylethylcarboxamido)-9-(4-hydroxybenzyl)-12,18-di(1H-3-indolylmethyl)-2,2-dimethyl-7,10,13,16,19-pentaoxo-3,4-dithia-8,11,14,17,20-pentaazacycloicosane-1-carboxami] | – | 6.00 |
| C[C@@H](O)[C@H](NC(=O)[C@@H]1CSSC[C@H](NC(=O)[C@H](N)Cc2ccccc2)C(=O)N[C@@H](Cc2cnc[nH]2)C(=O)N[C@@H](Cc2cccc3ccccc23)C(=O)N[C@@H](CCCNC(=N)N)C(=O)N[C@H](Cc2c[nH]c3ccccc23)C(=O)N1)C(N)=O [1N-(1-carbamoyl-2-hydroxypropyl)-15-[3-amino(imino)methylaminopropyl]-6-(1-amino-2-phenylethylcarboxamido)-9-(1H-5-imidazolylmethyl)-18-(1H-3-indolylmethyl)-12-(1-naphthylmethyl)-7,10,13,16,19-pentaoxo-3,4-dithia-8,11,14,17,20-pentaazacycloicosan] | 5.30 | – |
| C[C@@H](O)[C@H](NC(=O)[C@H]1NC(=O)[C@H](Cc2c[nH]c3ccccc23)NC(=O)[C@H](CCCNC(=N)N)NC(=O)[C@@H](Cc2ccccc2)NC(=O)[C@H](Cc2cnc[nH]2)NC(=O)[C@@H](NC(=O)[C@H](N)Cc2ccccc2)CSSC1(C)C)C(N)=O [H-D-Phe-c[Cys-His-D-Phe-Arg-Trp-Pen]-Thr-NH2] | 7.00 | – |
| C[C@@H](O)[C@H](NC(=O)[C@H]1NC(=O)[C@H]([C@@H](C)O)NC(=O)[C@H](CCCNC(=N)N)NC(=O)[C@@H](Cc2c[nH]c3ccccc23)NC(=O)[C@H](Cc2ccc(I)cc2)NC(=O)[C@@H](NC(=O)[C@H](N)Cc2ccccc2)CSSC1(C)C)C(N)=O [1N-(1-carbamoyl-2-hydroxypropyl)-15-[3-amino(imino)methylaminopropyl]-6-(1-amino-2-phenylethylcarboxamido)-18-(1-hydroxyethyl)-12-(1H-3-indolylmethyl)-9-(4-iodobenzyl)-2,2-dimethyl-7,10,13,16,19-pentaoxo-3,4-dithia-8,11,14,17,20-pentaazacycloicosane] | – | 7.00 |
| C[C@@H](O)[C@H](NC(=O)[C@@H]1CCCCNC(=O)C[C@H](NC(=O)[C@H](N)Cc2ccccc2)C(=O)N[C@@H](Cc2cnc[nH]2)C(=O)N[C@H](Cc2ccccc2)C(=O)N[C@@H](CCCNC(=N)N)C(=O)N[C@@H](Cc2c[nH]c3ccccc23)C(=O)N1)C(N)=O [1N-(1-carbamoyl-2-hydroxypropyl)-7-[3-amino(imino)methylaminopropyl]-16-(1-amino-2-phenylethylcarboxamido)-10-benzyl-13-(1H-5-imidazolylmethyl)-4-(1H-3-indolylmethyl)-3,6,9,12,15,18-hexaoxo-2,5,8,11,14,19-hexaazacyclotricosane-1-carboxamide] | 10.00 | – |
